Test results reported in US20230107983A1, “COMPOUND ISOLATED FROM TORILIDIS FRUCTUS, AND ANTICANCER PHARMACEUTICAL COMPOSITION CONTAINING SAME AS ACTIVE INGREDIENT” (PHARMA-GENE CO., LTD., priority 2020, published 2023).

Key:
[1] = system: human lung cancer cells (A549); test: Nude mouse xenograft model of human lung cancer cells, intraperitoneal administration; type: in vivo
Method: Anticancer activity against lung cancer according to the intraperitoneal administration of Tr-9 was confirmed through a nude mouse xenograft model of human lung cancer cells (A549). In Example 4, it was carried out using the same animal model and method as the oral administration, except that it was administered intraperitoneally.
(§1) Specific pathogen-free (SPF) nude mice of the BALB/C strain were used as the animal model. Animals were bred in the animal room of Daedeok Campus of Hannam University maintained at a temperature of 23±3° C., relative humidity of 55±15%, ventilation frequency of 10-20 times/hr, lighting time of 12 hours(lights on at 8 am and off at 8 pm) and illuminance of 150 to 300 Lux.
(§2) For cancer cell transplantation, all cells were collected and counted on the last day of culture, and the concentration of human lung cancer cell line A549 was adjusted to 5×10^6 cells/ml using PBS. The adjusted cell culture solution was injected subcutaneously into the auxiliary region between the right scapula and chest wall at 0.2 ml (1×10^6 cells/mouse) per mouse.
The Tr-9 was dissolved in sterile PBS and 1 mM Tr-9 200 µℓ was intraperitoneally administered per mouse once a day, and all animals were weighed immediately before the start of drug (Tr-9) administration and 10 times in total from day 2 to day 23 after cancer cell transplantation (Table 4).
(§3) In Table 4 above, data values are the mean ± standard deviation. After measuring the body weight, the animals were killed using CO2 gas, and the tumor was separated and the size was measured in 3 directions using a vernier caliper for each animal. Then, the change in tumor size was expressed as a calculated value of (length × width × height)/2 (Table 4).
(§4) Tumor size increase is (Δt)= Vt—Vo, wherein Vt is the value of measuring the tumor size by date, and Vo is the value of measuring the initial tumor size.

[2] = Change in mouse weight, A549 xenograft, oral administration; type: in vivo, nude mouse; set-up: Change in mouse weight: unit not given here; conditions: once a day
Method: (§5) The Tr-9 was dissolved in sterile PBS and 1 mM Tr-9 200 µℓ was orally administered per mouse once a day, and all animals were weighed immediately before the start of drug (Tr-9) administration and 10 times in total from day 2 to day 23 after cancer cell transplantation (Table 1).
as §3, with “1” for “4”, “2).” for “4).”

[3] = system: human lung cancer cells (A549); test: Nude mouse xenograft model of human lung cancer cells, oral administration; type: in vivo; set-up: Tumor size increase (Vt—V0): unit not given here
Method: as §1, with “Anticancer activity against lung cancer according to the oral administration of Tr-9 was confirmed through a nude mouse xenograft model of human lung cancer cells (A549). Specific” for “Specific”
as §2, §5
as §3, with “1” for “4”, “2).” for “4).”
as §4

[4] = Change in mouse weight, HCT116 xenograft, intraperitoneal administration; type: in vivo, nude mouse; set-up: Change in mouse weight: unit not given here; conditions: intraperitoneal once a day
Method: The Tr-9 was dissolved in sterile PBS and 1 mM Tr-9 200 µℓ was intraperitoneally administered per mouse once a day, and all animals were weighed immediately before the start of drug (Tr-9) administration and 9 times in total from day 2 to day 21 after cancer cell transplantation (Table 7).
as §3, with “7” for “4”, “8).” for “4).”

[5] = intraperitoneal once a day, Day 23

Change in mouse weight ([2]; 0 Day after drug treatment): 100.0 ±0.0
Change in mouse weight ([2]; 2 Days after drug treatment): 100.0 ±3.0
Change in mouse weight ([2]; 5 Days after drug treatment): 97.2 ±2.5
Change in mouse weight ([2]; 7 Days after drug treatment): 99.5 ±3.5
Change in mouse weight ([2]; 9 Days after drug treatment): 105.7 ±7.0
Change in mouse weight ([2]; 12 Days after drug treatment): 101.0 ±6.2
Change in mouse weight ([2]; 14 Days after drug treatment): 101.8 ±5.5
Change in mouse weight ([2]; 16 Days after drug treatment): 103.9 ±5.8
Change in mouse weight ([2]; 19 Days after drug treatment): 101.1 ±5.8
Change in mouse weight ([2]; 21 Days after drug treatment): 102.9 ±6.0
Change in mouse weight ([2]; 23 Days after drug treatment): 105.0 ±7.1
Change in mouse weight ([4]; 0 Day after drug treatment): 100.0 ±0.0
Change in mouse weight ([4]; 2 Days after drug treatment): 100.5 ±1.8
Change in mouse weight ([4]; 5 Days after drug treatment): 101.4 ±2.7
Change in mouse weight ([4]; 7 Days after drug treatment): 98.4 ±2.7
Change in mouse weight ([4]; 9 Days after drug treatment): 98.4 ±2.8
Change in mouse weight ([4]; 11 Days after drug treatment): 98.8 ±3.2
Change in mouse weight ([4]; 14 Days after drug treatment): 98.2 ±4.3
Change in mouse weight ([4]; 16 Days after drug treatment): 98.6 ±4.9
Change in mouse weight ([4]; 18 Days after drug treatment): 100.0 ±5.3
Change in mouse weight ([4]; 21 Days after drug treatment): 101.8 ±7.3
Structure (SMILES): C/C=C(/C)C(=O)O[C@@H]1C[C@H](C)[C@H]2CC(=O)C(C)=C2C[C@@H]1C(C)(C)OC(C)=O [Torilin, torilin, reference compound]
Tumor size increase (Vt−V0) ([1]; intraperitoneal once a day, Day 0, table title: Change in tumor size): 0.0±0.0
Tumor size increase (Vt−V0) ([1]; intraperitoneal once a day, Day 2, table title: Change in tumor size): 13.2±13.2
Inhibition rate (tumor size increase) ([1]; intraperitoneal once a day, Day 2, vs control): 2.9%
Tumor size increase (Vt−V0) ([1]; intraperitoneal once a day, Day 5, table title: Change in tumor size): 19.91±0.4
Inhibition rate (tumor size increase) ([1]; intraperitoneal once a day, Day 5, vs control): 4.8%
Tumor size increase (Vt−V0) ([1]; intraperitoneal once a day, Day 7, table title: Change in tumor size): 28.9±12.5
Inhibition rate (tumor size increase) ([1]; intraperitoneal once a day, Day 7, vs control): 14.7%
Tumor size increase (Vt−V0) ([1]; intraperitoneal once a day, Day 9, table title: Change in tumor size): 38.0±8.1
Inhibition rate (tumor size increase) ([1]; intraperitoneal once a day, Day 9, vs control): 17.0%
Tumor size increase (Vt−V0) ([1]; intraperitoneal once a day, Day 12, table title: Change in tumor size): 75.1±10.7
Inhibition rate (tumor size increase) ([1]; intraperitoneal once a day, Day 12, vs control): 14.6%
Tumor size increase (Vt−V0) ([1]; intraperitoneal once a day, Day 14, table title: Change in tumor size): 127.0±25.8
Inhibition rate (tumor size increase) ([1]; intraperitoneal once a day, Day 14, vs control): 15.6%
Tumor size increase (Vt−V0) ([1]; intraperitoneal once a day, Day 16, table title: Change in tumor size): 210.5±44.8
Inhibition rate (tumor size increase) ([1]; intraperitoneal once a day, Day 16, vs control): 19.9%
Tumor size increase (Vt−V0) ([1]; intraperitoneal once a day, Day 19, table title: Change in tumor size): 394.8±93.5
Inhibition rate (tumor size increase) ([1]; intraperitoneal once a day, Day 19, vs control): 22.9%
Tumor size increase (Vt−V0) ([1]; intraperitoneal once a day, Day 21, table title: Change in tumor size): 525.2±99.1
Inhibition rate (tumor size increase) ([1]; intraperitoneal once a day, Day 21, vs control): 22.7%
Tumor weight at Day 23 [1, 5]: 0.97 ± 0.183 g
Tumor weight reduction rate compared to control group [1, 5]: 28.6%
Tumor size increase (Vt−V0) ([1]; intraperitoneal once a day, Day 23, table title: Change in tumor size): 695.0±110.6
Inhibition rate (tumor size increase) ([1]; intraperitoneal once a day, Day 23, vs control): 27.0%
tumor size compared to the control group ([1]; intraperitoneal, after day 19): statistically significantly smaller
difference in body weight according to the administration of the drugs ([2]; day 2 to day 23): almost no difference in body weight
Tumor size increase (Vt—V0) ([3]; oral once a day, Day 0): 0.0±0.0
Tumor size increase (Vt—V0) ([3]; oral once a day, Day 2): 11.4±11.7
Inhibition rate (tumor size increase) ([3]; oral once a day, Day 2, vs control): 5.8%
Tumor size increase (Vt—V0) ([3]; oral once a day, Day 5): 18.1±9.4
Inhibition rate (tumor size increase) ([3]; oral once a day, Day 5, vs control): 10.8%
Tumor size increase (Vt—V0) ([3]; oral once a day, Day 7): 28.6±3.0
Inhibition rate (tumor size increase) ([3]; oral once a day, Day 7, vs control): 11.7%
Tumor size increase (Vt—V0) ([3]; oral once a day, Day 9): 42.0±9.8
Inhibition rate (tumor size increase) ([3]; oral once a day, Day 9, vs control): 20.9%
Inhibition rate (tumor size increase) ([3]; oral once a day, Day 12, vs control): 27.0%
Tumor size increase (Vt—V0) ([3]; oral once a day, Day 14): 134.6±37.6
Inhibition rate (tumor size increase) ([3]; oral once a day, Day 14, vs control): 26.0%
Tumor size increase (Vt—V0) ([3]; oral once a day, Day 16): 211.8±32.9
Inhibition rate (tumor size increase) ([3]; oral once a day, Day 16, vs control): 27.0%
Tumor size increase (Vt—V0) ([3]; oral once a day, Day 19): 362.2±64.2
Inhibition rate (tumor size increase) ([3]; oral once a day, Day 19, vs control): 31.5%
Tumor size increase (Vt—V0) ([3]; oral once a day, Day 21): 493.4±82.6
Inhibition rate (tumor size increase) ([3]; oral once a day, Day 21, vs control): 33.0%
Tumor size increase (Vt—V0) ([3]; oral once a day, Day 23): 646.9±108.8
Tumor weight at Day 23 ([3]; oral once a day, Day 23): 0.745 ± 0.196 g
Tumor weight reduction rate compared to control group ([3]; oral once a day, Day 23): 29.5%
Inhibition rate (tumor size increase) ([3]; oral once a day, Day 23, vs control): 34.1%
tumor size compared to the control group ([3]; oral, after day 19): statistically significantly smaller
difference in body weight according to the administration of the drugs ([4]; day 2 to day 21): almost no difference in body weight
